According to publication PMC12257397, “Scaffold Hopping Strategy toward New 4‑Aminoquinazolines Active Against Extracellular and Intracellular Mycobacterium tuberculosis” (ACS Medicinal Chemistry Letters, 2025):
In brackets after ≈: the same amount, converted by molar mass.

Legend:
[1] = tested on: M. tuberculosis H37Rv (ATCC 27294); test: MIC by resazurin reduction microplate assay (REMA); type: cell-based; conditions: Mycobacterium tuberculosis, converted from μg/mL to μM
[2] = tested on: M. tuberculosis H37Rv-LP (ATCC 25618); test: microbe, parasite or virus in culture; type: cell-based; conditions: Mycobacterium tuberculosis, 120 h, concentration inhibiting 90% of growth, 5 days, read-out: MIC parental wild-type strain H37Rv-LP
in vitro [3] = conditions: human
in vitro [4] = conditions: human; remark: listed apart in the source
in vitro [5] = conditions: human; remark: listed apart in the source

Row | Structure (SMILES) | MIC [1] | also measured
1 | Cc1nc(NCCc2ccccc2)c2ccccc2n1 [9a] | 38 µM (≈ 10 µg/mL) | –
2 | COc1ccc2nc(C)nc(NCCc3ccccc3)c2c1 [9b] | 34.1 µM (≈ 10 µg/mL) | –
3 | Cc1nc(NCCc2ccccc2)c2cc(Br)ccc2n1 [9c] | 7.3 µM (≈ 2.5 µg/mL) | –
4 | c1ccc(CCNc2ncnc3ccccc23)cc1 [9e] | 80.2 µM (≈ 20 µg/mL) | –
5 | COc1ccc(CCNc2nc(C)nc3ccccc23)cc1 [10a] | 34.1 µM (≈ 10 µg/mL) | –
6 | COc1ccc(CCNc2nc(C)nc3ccc(OC)cc23)cc1 [10b] | 30.9 µM (≈ 9.99 µg/mL) | –
7 | COc1ccc(CCNc2nc(C)nc3ccc(Br)cc23)cc1 [10c] | 13.4 µM (≈ 4.99 µg/mL) | –
8 | COc1ccc(CCNc2nc(C)nc3ccc(I)cc23)cc1 [10d] | 1.5 µM (≈ 0.629 µg/mL) | MIC [2]: 0.92 µM (≈ 0.386 µg/mL); CC50 at 72 h (in vitro [3]; CC50 HepG2+Gal): 6.4 µM; CC50 at 72 h (in vitro [3]; CC50 HepG2+Glu): 10.8 µM
9 | COc1ccc(CCNc2ncnc3ccccc23)cc1 [10e] | 71.6 µM (≈ 20 µg/mL) | –
10 | Cc1nc(NCCc2ccc(Cl)cc2)c2ccccc2n1 [11a] | 16.8 µM (≈ 5 µg/mL) | –
11 | COc1ccc2nc(C)nc(NCCc3ccc(Cl)cc3)c2c1 [11b] | 30.5 µM (≈ 10 µg/mL) | –
12 | Cc1nc(NCCc2ccc(Cl)cc2)c2cc(Br)ccc2n1 [11c] | 13.3 µM (≈ 5.01 µg/mL) | –
13 | Cc1nc(NCCc2ccc(Cl)cc2)c2cc(I)ccc2n1 [11d] | 0.73 µM (≈ 0.309 µg/mL) | MIC [2]: 0.84 µM (≈ 0.356 µg/mL); CC50 at 72 h (in vitro [3]; CC50 HepG2+Gal): 3.3 µM; CC50 at 72 h (in vitro [3]; CC50 HepG2+Glu): 4.2 µM
14 | Clc1ccc(CCNc2ncnc3ccccc23)cc1 [11e] | > 35.2 µM | –
15 | Cc1nc(NCC(c2ccccc2)c2ccccc2)c2ccccc2n1 [12a] | 29.5 µM (≈ 10 µg/mL) | –
16 | COc1ccc2nc(C)nc(NCC(c3ccccc3)c3ccccc3)c2c1 [12b] | 27.1 µM (≈ 10 µg/mL) | –
17 | Cc1nc(NCC(c2ccccc2)c2ccccc2)c2cc(Br)ccc2n1 [12c] | > 23.9 µM | –
18 | Cc1nc(NCC(c2ccccc2)c2ccccc2)c2cc(I)ccc2n1 [12d] | > 21.5 µM | –
19 | c1ccc(C(CNc2ncnc3ccccc23)c2ccccc2)cc1 [12e] | > 30.7 µM | –
20 | Cc1nc(NCCc2ccc(OC(F)(F)F)cc2)c2ccccc2n1 [13a] | 7.2 µM (≈ 2.5 µg/mL) | –
21 | COc1ccc2nc(C)nc(NCCc3ccc(OC(F)(F)F)cc3)c2c1 [13b] | 13.3 µM (≈ 5.02 µg/mL) | –
22 | Cc1nc(NCCc2ccc(OC(F)(F)F)cc2)c2cc(Br)ccc2n1 [13c] | 5.9 µM (≈ 2.51 µg/mL) | CC50 at 72 h (in vitro [4]): < 1 µM; CC50 at 72 h (in vitro [5]): < 1 µM; MIC [2]: 3.4 µM (≈ 1.45 µg/mL); CC50 at 72 h (in vitro [3]; CC50 HepG2+Gal): 1 µM; CC50 at 72 h (in vitro [3]; CC50 HepG2+Glu): 1.5 µM
23 | Cc1nc(NCCc2ccc(OC(F)(F)F)cc2)c2cc(I)ccc2n1 [13d] | 5.3 µM (≈ 2.51 µg/mL) | CC50 at 72 h (in vitro [4]): 7.3 µM; CC50 at 72 h (in vitro [5]): 7.4 µM; MIC [2]: 3.7 µM (≈ 1.75 µg/mL); CC50 at 72 h (in vitro [3]; CC50 HepG2+Gal): 2.2 µM; CC50 at 72 h (in vitro [3]; CC50 HepG2+Glu): 3.4 µM
24 | FC(F)(F)Oc1ccc(CCNc2ncnc3ccccc23)cc1 [13e] | 60 µM (≈ 20 µg/mL) | –
25 | Cc1nc(NCCc2ccc(S(N)(=O)=O)cc2)c2ccccc2n1 [14a] | > 117 µM | –
26 | COc1ccc2nc(C)nc(NCCc3ccc(S(N)(=O)=O)cc3)c2c1 [14b] | > 107 µM | –
